Biological target: T1, amyloglucosidase (Aspergillus niger, UniProt P69328)
T1 construct: gene GLAA
Assay: commercial glycosidase inhibition assay ([…] inhibition at […]; IC50 determined)
Format: biochemical

T1 sequence (P69328 25-640): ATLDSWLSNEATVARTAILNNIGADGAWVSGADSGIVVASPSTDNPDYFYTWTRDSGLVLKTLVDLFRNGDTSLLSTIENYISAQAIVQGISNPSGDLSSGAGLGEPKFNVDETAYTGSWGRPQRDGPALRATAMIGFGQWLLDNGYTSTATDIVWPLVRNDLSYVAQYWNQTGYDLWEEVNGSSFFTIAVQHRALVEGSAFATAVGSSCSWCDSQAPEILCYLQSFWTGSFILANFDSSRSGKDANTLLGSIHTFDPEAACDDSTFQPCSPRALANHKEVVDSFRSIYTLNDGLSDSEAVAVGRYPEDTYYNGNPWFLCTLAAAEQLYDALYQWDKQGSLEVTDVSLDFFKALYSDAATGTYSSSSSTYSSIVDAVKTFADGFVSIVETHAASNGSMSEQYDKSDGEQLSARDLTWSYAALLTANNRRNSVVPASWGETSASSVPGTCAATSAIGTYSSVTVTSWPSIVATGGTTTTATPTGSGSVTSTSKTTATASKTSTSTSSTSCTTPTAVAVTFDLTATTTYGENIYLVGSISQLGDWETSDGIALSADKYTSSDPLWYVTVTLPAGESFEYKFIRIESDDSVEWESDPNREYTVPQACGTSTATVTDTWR

Compound: NCc1cn(CCCN2C[C@@H](O)C(O)[C@H](O)C2)nn1 [compound 15, Deprotected monovalent iminosugar 15]
- IC50: 1100 µM
